Patent publication US20250019373A1, “ARYL OR HETEROARYL DERIVATIVE, AND PHARMACEUTICAL COMPOSITION COMPRISING SAME AS ACTIVE INGREDIENT FOR PREVENTION OR TREATMENT OF KINASE-RELATED DISEASES” (VORONOI INC., priority 2021, published 2025)

System: HT-29 cells
Assay: Cell necrosis inhibitory activity under necroptosis-inducing conditions (TNF-α, Z-VAD-FMK, LCL161) in HT-29 cells, Cell Titer-Glo
Format: cell-based
Conditions: Homo sapiens, 100 ng/mL TNF-α + 25 μM Z-VAD-FMK + Smac mimetic LCL161, 24 hours, cell viability
Procedure: To evaluate the cell necrosis inhibitory activity of the compound according to the present invention, an experiment was conducted as follows.
To evaluate the efficacy of inhibiting cell necrosis under TNF-α-mediated cell death-inducing conditions, a HT-29 cell line (Korean Cell Line Bank Accession No. #30038) was cultured in RPMI-1640 (HyClone #SH3027.01) medium containing 10% fetal bovine serum (FBS) and 1% penicillin/streptomycin to analyze cell viability. More specifically, for testing, the cell line was seeded in a 96-well flat bottom plate (Corning #3903) at a concentration of 10,000 cells/well and incubated at 37° C. under a 5% CO2 condition for 24 hours. Each well was treated with 100 ng/mL TNF-α, 25 μM pan-caspase inhibitor (Z-VAD-FMK, Selleckchem #S8102), and 10 µM Smac mimetic LCL161 (Selleckchem #S7009) and allowed to react for 10 minutes. The compounds of Examples were treated at 11 concentrations (the highest concentration being 0.1 μM or 1 μM) with a 3-fold concentration gradient, and as a control, dimethyl sulfoxide (DMSO) was treated at a concentration of 0.05% (v/v), which is the same as those when the compounds were treated. The treated cells were incubated for 24 hours. To confirm the degree of cell viability, 100 μL of Cell Titer-Glo (Promega #G7573) was added to the medium of the cultured cells and cultured for additional 10 minutes, and then luminescence was measured using a microplate reader. Based on the […] of control cells that were not treated with the compound, the degree of cell necrosis inhibitory activity was calculated according to the treatment concentration of each compound. Here, the concentration at which the cell necrosis inhibitory activity was 50% was determined as an EC50 (nM) value and calculated using Prism (ver. 8.4.3 #GraphPad) software.

Row | SMILES | EC50
1 | O=C(Nc1cn2nc(-c3cccc(NC(=O)N4OCC[C@H]4c4ccccc4)c3)ccc2n1)C1CC1 [Example 2, (S)-N-(3-(2-(cyclopropanecarboxamido)imidazo[1,2-b]pyridazin-6-yl)phenyl)-3-phenylisoxazolidine-2-carboxamide] | 0.2 nM
2 | Cc1ncc(-c2ccc3nc(N)nn3c2)cc1NC(=O)N1OCC[C@H]1c1ccc(F)c(Cl)c1 [Example 42, (S)-N-(5-(2-amino-[1,2,4]triazolo[1,5-a]pyridin-6-yl)-2-methylpyridin-3-yl)-3-(3-chloro-4-fluorophenyl)isoxazolidine-2-carboxamide] | 0.6 nM
3 | Cc1ccc(-c2ccn3nc(N)cc3c2)cc1NC(=O)N1Oc2ccccc2[C@H]1c1ccccc1 [Example 139, (R)-N-(5-(2-aminopyrazolo[1,5-a]pyridin-5-yl)-2-methylphenyl)-3-phenylbenzo[d]isoxazole-2(3H)-carboxamide] | 2.2 nM
4 | Cc1ncc(-c2ccc3nc(N)nn3c2)cc1NC(=O)N1OCC[C@H]1c1ccc(Cl)c(C(F)(F)F)c1 [Example 44, (S)-N-(5-(2-amino-[1,2,4]triazolo[1,5-a]pyridin-6-yl)-2-methylpyridin-3-yl)-3-(4-chloro-3-(trifluoromethyl)phenyl)isoxazolidine-2-carboxamide] | 4.1 nM
5 | Cc1ccc(-c2ccc3ncnn3c2)cc1NC(=O)N1OCC[C@H]1c1ccccc1 [Example 101, (S)-N-(5-([1,2,4]triazolo[1,5-a]pyridin-6-yl)-2-methylphenyl)-3-phenylisoxazolidine-2-carboxamide] | 6.2 nM
6 | CNC(=O)c1n[nH]c2cc(-c3cc(NC(=O)N4OCC[C@H]4c4ccccc4)cnc3OC)ccc12 [Example 23, (S)-N-(6-methoxy-5-(3-(methylcarbamoyl)-1H-indazol-6-yl)pyridin-3-y1)-3-phenylisoxazolidine-2-carboxamide] | 8.1 nM
7 | COc1ncc(-c2ccc3nc(NC(C)=O)oc3c2)cc1NC(=O)N1OCC[C@H]1c1ccccc1 [Example 13, (S)-N-(5-(2-acetamidobenzo[d]oxazol-6-yl)-2-methoxypyridin-3-yl)-3-phenylisoxazolidine-2-carboxamide] | 2.6 nM
8 | COc1ncc(-c2ccc3c(N)ncnn23)cc1NC(=O)N1OCC[C@H]1c1ccccc1 [Example 99, (S)-N-(5-(4-aminopyrrolo[2,1-f][1,2,4]triazin-7-yl)-2-methoxypyridin-3-yl)-3-phenylisoxazolidine-2-carboxamide] | 8.2 nM
9 | COc1ncc(-c2ccc3nc(NC(C)=O)sc3c2)cc1NC(=O)N1OCC[C@H]1c1ccccc1 [Example 26, (S)-N-(5-(2-acetamidobenzo[d]thiazol-6-yl)-2-methoxypyridin-3-yl)-3-phenylisoxazolidine-2-carboxamide] | 0.7 nM
10 | Cc1ccc(-c2ccc3ncc(C#CC(C)(C)O)n3n2)cc1NC(=O)N1OCC[C@H]1c1ccccc1 [Example 117, (S)-N-(5-(3-(3-hydroxy-3-methylbut-1-yn-1-yl)imidazo[1,2-b]pyridazin-6-yl)-2-methylphenyl)-3-phenylisoxazolidine-2-carboxamide] | 2.4 nM
11 | CNC(=O)c1n[nH]c2cc(-c3cncc(NC(=O)N4OCC[C@H]4c4ccccc4)c3)ccc12 [Example 19, (S)-N-(5-(3-(methylcarbamoyl)-1H-indazol-6-yl)pyridin-3-yl)-3-phenylisoxazolidine-2-carboxamide] | 1 nM
12 | Cc1ncc(-c2ccc3nc(N)nn3c2)cc1NC(=O)N1OCC[C@H]1c1ccc(F)cc1 [Example 56, (S)-N-(5-(2-amino-[1,2,4]triazolo[1,5-a]pyridin-6-yl)-2-methylpyridin-3-yl)-3-(4-fluorophenyl)isoxazolidine-2-carboxamide] | 0.7 nM
13 | Cc1ccc(-c2ccc3nc(N)nn3c2)cc1NC(=O)N1OCC[C@H]1c1ccccc1 [Example 32, (S)-N-(5-(2-amino-[1,2,4]triazolo[1,5-a]pyridin-6-yl)-2-methylphenyl)-3-phenylisoxazolidine-2-carboxamide] | 0.6 nM
14 | Cc1ccc(-c2ccc3nc(N)cn3n2)cc1NC(=O)N1OCC[C@H]1c1ccccc1 [Example 95, (S)-N-(5-(2-aminoimidazo[1,2-b]pyridazin-6-yl)-2-methylphenyl)-3-phenylisoxazolidine-2-carboxamide] | 7.5 nM
15 | Cc1ccc(-c2ccc3nc(N)nn3c2)cc1NC(=O)N1OCC[C@H]1c1ccc(F)cc1 [Example 66, (S)-N-(5-(2-amino-[1,2,4]triazolo[1,5-a]pyridin-6-yl)-2-methylphenyl)-3-(4-fluorophenyl)isoxazolidine-2-carboxamide] | 0.4 nM
16 | Nc1nc2ccc(-c3ccc(Cl)c(NC(=O)N4OCC[C@H]4c4ccccc4)c3)cn2n1 [Example 97, (S)-N-(5-(2-amino-[1,2,4]triazolo[1,5-a]pyridin-6-yl)-2-chlorophenyl)-3-phenylisoxazolidine-2-carboxamide] | 1.1 nM
17 | Cc1ncc(-c2ccc3nc(NC(=O)C4CC4)sc3c2)cc1NC(=O)N1OCC[C@H]1c1ccccc1 [Example 29, (S)-N-(5-(2-(cyclopropanecarboxamido)benzo[d]thiazol-6-yl)-2-methylpyridin-3-yl)-3-phenylisoxazolidine-2-carboxamide] | 0.1 nM
18 | C#Cc1cnc2ccc(-c3ccc(C)c(NC(=O)N4OCC[C@H]4c4ccccc4)c3)nn12 [Example 125, (S)-N-(5-(3-ethynylimidazo[1,2-b]pyridazin-6-yl)-2-methylphenyl)-3-phenylisoxazolidine-2-carboxamide] | 1.4 nM
19 | Cc1ccc(-c2cc3scnc3cn2)cc1NC(=O)N1OCC[C@H]1c1ccccc1 [Example 130, (S)-N-(2-methyl-5-(thiazolo[4,5-c]pyridin-6-yl)phenyl)-3-phenylisoxazolidine-2-carboxamide] | 1.4 nM
20 | Nc1nc2cc(-c3ccc(F)c(NC(=O)N4OCC[C@H]4c4ccccc4)c3)ccn2n1 [Example 123, (S)-N-(5-(2-amino-[1,2,4]triazolo[1,5-a]pyridin-7-yl)-2-fluorophenyl)-3-phenylisoxazolidine-2-carboxamide] | 0.3 nM
21 | COc1ccc(-c2ccc3nc(NC(C)=O)oc3c2)cc1NC(=O)N1OCC[C@H]1c1ccccc1 [Example 16, (S)-N-(5-(2-acetamidobenzo[d]oxazol-6-yl)-2-methoxyphenyl)-3-phenylisoxazolidine-2-carboxamide] | 4.9 nM
22 | Cc1ccc([C@@H]2CCON2C(=O)Nc2cc(-c3ccc4nc(N)nn4c3)cnc2C)cn1 [Example 51, (S)-N-(5-(2-amino-[1,2,4]triazolo[1,5-a]pyridin-6-yl)-2-methylpyridin-3-yl)-3-(6-methylpyridin-3-yl)isoxazolidine-2-carboxamide] | 23.3 nM
23 | Cc1ccc(-c2ccc3nnc(C(F)(F)F)n3n2)cc1NC(=O)N1OCC[C@H]1c1ccccc1 [Example 108, (S)-N-(2-methyl-5-(3-(trifluoromethyl)-[1,2,4]triazolo[4,3-b]pyridazin-6-yl)phenyl)-3-phenylisoxazolidine-2-carboxamide] | 29.8 nM
24 | Cc1ccc(-c2ccn3nc(N)nc3c2)cc1NC(=O)N1OCC[C@H]1c1ccccc1 [Example 61, (S)-N-(5-(2-amino-[1,2,4]triazolo[1,5-a]pyridin-7-yl)-2-methylphenyl)-3-phenylisoxazolidine-2-carboxamide] | 0.2 nM
25 | CC(=O)Nc1nc2ccc(-c3cnc(C)c(NC(=O)N4OCC[C@H]4c4ccccc4)c3)cc2s1 [Example 28, (S)-N-(5-(2-acetamidobenzo[d]thiazol-6-yl)-2-methylpyridin-3-yl)-3-phenylisoxazolidine-2-carboxamide] | 0.2 nM
26 | Cc1ncc(-c2ccc3nc(N)nn3c2)cc1NC(=O)N1OCC[C@H]1c1cc(F)cc(Cl)c1 [Example 52, (S)-N-(5-(2-amino-[1,2,4]triazolo[1,5-a]pyridin-6-yl)-2-methylpyridin-3-yl)-3-(3-chloro-5-fluorophenyl)isoxazolidine-2-carboxamide] | 2.8 nM
27 | Cc1ccc(-c2ccn3nc(N)nc3c2)cc1NC(=O)N1OCC[C@H]1c1ccc(C#N)cc1 [Example 92, (S)-N-(5-(2-amino-[1,2,4]triazolo[1,5-a]pyridin-7-yl)-2-methylphenyl)-3-(4-cyanophenyl)isoxazolidine-2-carboxamide] | 0.6 nM
28 | CNC(=O)c1n[nH]c2cc(-c3ccc(OC)c(NC(=O)N4OCC[C@H]4c4ccccc4)c3)ccc12 [Example 24, (S)-N-(2-methoxy-5-(3-(methylcarbamoyl)-1H-indazol-6-yl)phenyl)-3-phenylisoxazolidine-2-carboxamide] | 0.4 nM
29 | Cc1ncc(-c2ccc3nc(NC(=O)C4CC4)cn3n2)cc1NC(=O)N1OCC[C@H]1c1ccccc1 [Example 10, (S)-N-(5-(2-(cyclopropanecarboxamido)imidazo[1,2-b]pyridazin-6-yl)-2-methylpyridin-3-yl)-3-phenylisoxazolidine-2-carboxamide] | 0.3 nM
30 | COc1ncc(-c2ccc3nc(N)cn3n2)cc1NC(=O)N1OCC[C@H]1c1ccccc1 [Example 7, (S)-N-(5-(2-aminoimidazo[1,2-b]pyridazin-6-y1)-2-methoxypyridin-3-yl)-3-phenylisoxazolidine-2-carboxamide] | 40 nM
